Results published in patent publication US8258258B2, “Dimeric or multimeric microproteins” (BioNTech AG, priority 2005, dated 2012).

The substances below were run on TPOR/4Rα hybrid receptor (assay: Ba/F3 luciferase reporter gene assay, TPO competition (antagonist activity)). Details: 5 nM TPO and 500 nM of each compound; FIG. 3.
Assay type: cell-based, human
Method: The expression vector for the TPOR/4Rα hybrid receptor, pcDNATPOR/4Rα, was constructed as follows. A PCR reaction was performed on a cDNA clone containing the human TPO receptor coding sequence using oligonucleotides TpoR-Xho-lo (5′-[…]-3′; SEQ ID NO.: 18) and TpoR-Xho-up (5′-[…]-3′; SEQ ID No.: 19). The resulting PCR product was digested with XhoI and ligated into similarly digested vector pASKcDNA-NH to yield pASKcDNA-NH-TPOR. pASKcDNA-NH resulted from the subcloning of an NheI/HindIII fragment of pcDNA/4Rα (Krause et al., 2004) in pASK21TETIsendc1/2 (Christmann et al., 1999). From the vector pASKcDNA-NH-TPOR the NheI/HindIII fragment containing the TPOR coding sequence was ligated to similarly digested pcDNA/4Rα to yield pcDNATPOR/4Rα. The STAT6 reporter gene construct pIεTATALuc was generated by insertion of a synthetic Hind III/Bam HI fragment representing the entire promoter/enhancer-sequence from the IL-4 responsive region of the human Iε promoter (Ezernieks et al., 1996) into luciferase expression plasmid pTATALuc+ (Altschmied et al., 1997).
The murine pre-B cell line Ba/F3 was cultured as described (Lischke et al., 1995). Cells were transfected using the cell line Nucleofector™ kit V (Amaxa, Germany). Briefly, 8×10^6 cells were starved for 2 h in RPMI 1640/10% FCS, centrifuged and resuspended in 100 μl of transfection reagent V supplemented with 4 μg of expression vector pcDNATPOR/4Rα and 1 μg of reporter gene construct pIεTATALuc. Transfection was performed with the Nucleofector™ device applying program T16. Each transfection batch was recovered in 3.5 ml RPMI 1640/10% FCS and seeded at 2×10^5 cells/100 μl per well in a 96-well cell culture plate. Cells were left untreated for 1 h and then supplemented with various concentrations of hTPO (Immunotools, Germany) and individual microprotein candidates, respectively, to a total volume of 200 μl. For TPO competition assays cell aliquots were preincubated with individual microprotein samples 1 hour before stimulation with hTPO. After incubation for 12 h at 37° C., 5% CO2, cell lysates were prepared and luciferase activity was measured as described previously (Krause et al., 2004).
These cells were transfected with a gene encoding a fusion of the hTPOR extracellular domain and the intracellular 4Rα domain from human […] and co-transfected with a reporter gene construct pIεTATALuc (Krause et al., 2004). […] The same result was obtained for SE-AG-TP-040 in some assays. On the other hand, agonistic activity was shown for all the microproteins so far tested (Table 1).

Chain of TPOR/4Rα hybrid receptor (P40238 26-491 limits assumed): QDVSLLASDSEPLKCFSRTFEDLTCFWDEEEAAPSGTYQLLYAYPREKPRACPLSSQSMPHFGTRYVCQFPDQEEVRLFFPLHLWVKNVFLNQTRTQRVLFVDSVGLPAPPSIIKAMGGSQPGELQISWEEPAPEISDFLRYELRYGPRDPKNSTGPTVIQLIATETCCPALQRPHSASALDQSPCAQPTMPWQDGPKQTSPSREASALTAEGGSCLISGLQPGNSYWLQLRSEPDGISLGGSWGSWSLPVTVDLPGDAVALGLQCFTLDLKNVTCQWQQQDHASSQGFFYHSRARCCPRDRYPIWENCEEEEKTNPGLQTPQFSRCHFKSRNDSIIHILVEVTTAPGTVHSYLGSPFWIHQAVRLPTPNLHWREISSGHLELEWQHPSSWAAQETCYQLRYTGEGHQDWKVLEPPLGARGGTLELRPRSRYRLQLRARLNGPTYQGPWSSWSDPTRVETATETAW

Substance | Inhibition of TPO receptor activation (TPO antagonist)
GCVRLHESCLGQQVPCCDPAATCGGTALAiegptlrqwlaaraCKGS (GCVRLHESCLGQQVPCCDPAATCGGTALAIEGPTLRQWLAARACKGS) [SE-AG-TP-040] | able to act as TPO antagonists
GCVRLHESCLGQQVPCCDPAATCiegptlrqwlaaraCKGS (GCVRLHESCLGQQVPCCDPAATCIEGPTLRQWLAARACKGS) [SE-AG-TP-030] | able to act as TPO antagonists
GCiegptlrqwlaaraCKQDSDCLAGCVCGPNGFCGS (GCIEGPTLRQWLAARACKQDSDCLAGCVCGPNGFCGS) [SE-ET-TP-020] | able to act as TPO antagonists
iegptlrqwlaara (IEGPTLRQWLAARA) [SE-LN-TP-020, reference compound] | able to act as TPO antagonists
GCiegptlrqwlaaCKQDSDCLAGCVCGPNGFCGS (GCIEGPTLRQWLAACKQDSDCLAGCVCGPNGFCGS) [SE-ET-TP-030] | able to act as TPO antagonists

The substances below were run on platelet count (assay: In vivo platelet expansion test). Details: Balb/c mice, 10 and 1000 μg/kg twice daily s.c., after 5 days; FIG. 7.
Method: To assess the in vivo function of SE-ET-TP-020, Balb/c mice (n=5) were treated twice daily with 10 and 1000 μg/kg, respectively, SE-ET-TP-020 by subcutaneous injection. After 5 days, platelet count was measured in comparison to corresponding placebo experiments.

Substance | Platelet count versus placebo
GCiegptlrqwlaaraCKQDSDCLAGCVCGPNGFCGS (GCIEGPTLRQWLAARACKQDSDCLAGCVCGPNGFCGS) [SE-ET-TP-020] | doubling of the platelet count
